Test results from patent US20080113900A1, “Pharmaceutical compositions and therapeutic applications for the use of a synthetic vitamin B12 derivative, glutathionylcobalamin” (priority 2006, published 2008).
“And” between values parts separate entries of the source, which are not always exact repeats. Identical values can stand only once.

What was measured:
[1] = Decomposition in PBS at 37° C. monitored by UV/Vis spectrophotometry; format: physicochemical
Description: The decomposition of GSCbl, NACCbl, and HcyCbl in PBS at 37° C. was monitored by UV/Vis spectrophotometry.

SK-HEP-1 cells = experiment: Protection of endothelial cells from homocysteine-induced cell death (MTS assay); format: cell-based, human; conditions: for Absorbance at 490 nm: single replicates Y1-Y6
[2] = Conc. Hcy 0.000, NACCbl 30 μM, NAC 75 μM, n = 6
[3] = Conc. Hcy 1.780, NACCbl 30 μM, NAC 75 μM, n = 6
[4] = Conc. Hcy 3.125, NACCbl 30 μM, NAC 75 μM, n = 6
[5] = Conc. Hcy 6.250, NACCbl 30 μM, NAC 75 μM, n = 6
[6] = Conc. Hcy 12.500, NACCbl 30 μM, NAC 75 μM, n = 6
[7] = Conc. Hcy 25.000, NACCbl 30 μM, NAC 75 μM, n = 6
[8] = Conc. Hcy 50.000, NACCbl 30 μM, NAC 75 μM, n = 6
[9] = Conc. Hcy 100.000, NACCbl 30 μM, NAC 75 μM, n = 6
[10] = Conc. Hcy 200.000, NACCbl 30 μM, NAC 75 μM, n = 6

Compound: CC(=O)NC(C[S-])C(=O)O.CC1=C2N=C(C=C3N=C(C(C)=C4[N-]C(C(CC(N)=O)C4(C)CCC(=O)NCC(C)OP(=O)([O-])OC4C(CO)OC(n5cnc6cc(C)c(C)cc65)C4O)C4(C)N=C1C(CCC(N)=O)C4(C)CC(N)=O)C(CCC(N)=O)C3(C)C)C(CCC(N)=O)C2(C)CC(N)=O.[Co+3] [NACCbl, N-acetyl-L-cysteinylcobalamin]
- t1/2 [1]: No decomposition within 20 hours
- Pre-incubation concentration that protected cells from homocysteine-induced cell death (SK-HEP-1 cells; 2 hours, then 30 μM homocysteine 24 hours): ≥ 2.0 µM
- Normalized Data Log 2, Mean (SK-HEP-1 cells; [2]): 94.824
- Normalized Data Log 10, Mean (SK-HEP-1 cells; [2]): 100.000
- Normalized Data Log 2, Mean (SK-HEP-1 cells; [3]): 91.341
- Normalized Data Log 10, Mean (SK-HEP-1 cells; [3]): 96.489
- Normalized Data Log 2, Mean (SK-HEP-1 cells; [4]): 80.699
- Normalized Data Log 10, Mean (SK-HEP-1 cells; [4]): 85.763
- Normalized Data Log 2, Mean (SK-HEP-1 cells; [5]): 75.524
- Normalized Data Log 10, Mean (SK-HEP-1 cells; [5]): 80.546
- Normalized Data Log 2, Mean (SK-HEP-1 cells; [6]): 70.387
- Normalized Data Log 10, Mean (SK-HEP-1 cells; [6]): 75.368
- Normalized Data Log 2, Mean (SK-HEP-1 cells; [7]): 62.926
- Normalized Data Log 10, Mean (SK-HEP-1 cells; [7]): 67.848
- Normalized Data Log 2, Mean (SK-HEP-1 cells; [8]): 56.302
- Normalized Data Log 10, Mean (SK-HEP-1 cells; [8]): 61.171
- Normalized Data Log 2, Mean (SK-HEP-1 cells; [9]): 52.298
- Normalized Data Log 10, Mean (SK-HEP-1 cells; [9]): 57.135
- Normalized Data Log 2, Mean (SK-HEP-1 cells; [10]): 40.781
- Normalized Data Log 10, Mean (SK-HEP-1 cells; [10]): 45.526
- Absorbance at 490 nm (SK-HEP-1 cells; Conc. of Hcy 0.000, NACCbl 30 μM, NAC 75 μM): 2.885 and 2.698 and 2.821 and 2.771 and 2.691 and 2.700
- Absorbance at 490 nm (SK-HEP-1 cells; Conc. of Hcy 1.780, NACCbl 30 μM, NAC 75 μM): 2.647 and 2.551 and 2.789 and 2.890 and 2.549 and 2.611
- Absorbance at 490 nm (SK-HEP-1 cells; Conc. of Hcy 3.125, NACCbl 30 μM): 2.453 and 2.338 and 2.360 and 2.317 and 2.418 and 2.535
- Absorbance at 490 nm (SK-HEP-1 cells; Conc. of Hcy 6.250, NACCbl 30 μM, NAC 75 μM): 2.410 and 2.400 and 2.322 and 2.201 and 2.115 and 2.187
- Absorbance at 490 nm (SK-HEP-1 cells; Conc. of Hcy 12.500, NACCbl 30 μM, NAC 75 μM): 2.210 and 2.110 and 2.045 and 2.065 and 2.101 and 2.324
- Absorbance at 490 nm (SK-HEP-1 cells; Conc. of Hcy 25.000, NACCbl 30 μM, NAC 75 μM): 2.100 and 2.190 and 1.879 and 1.937 and 1.779 and 1.837
- Absorbance at 490 nm (SK-HEP-1 cells; Conc. of Hcy 50.000, NACCbl 30 μM, NAC 75 μM): 1.678 and 1.832 and 1.881 and 1.730 and 1.740 and 1.855
- Absorbance at 490 nm (SK-HEP-1 cells; Conc. of Hcy 100.000, NACCbl 30 μM, NAC 75 μM): 1.678 and 1.592 and 1.694 and 1.773 and 1.732 and 1.639
- Absorbance at 490 nm (SK-HEP-1 cells; Conc. of Hcy 200.000, NACCbl 30 μM, NAC 75 μM): 1.378 and 1.167 and 1.330 and 1.456 and 1.491 and 1.537
- Protection against homocysteine-induced damage compared with free thiols (SK-HEP-1 cells; Hcy 30 μM, NAC 45 μM, GSH 100 μM, NACCbl 12.5 μM, GSCbl 15 μM): superior to the free thiols
- Prevention of cell death compared with NAC and cyanocobalamin + NAC (SK-HEP-1 cells; NACCbl 30 μM, variable Hcy): superior to either NAC (75 μM) alone or in combination with CNCbl
- Absorbance at 490 nm, Mean (SK-HEP-1 cells; SK-HEP-1, NACCbl 30 μM, NAC 75 μM, Hcy conc. 200.000, n = 6, label Hcy = Hcy alone): 1.393
- Mean (FIG. 14, protection of SK-HEP-1 cells from Hcy) (SK-HEP-1 cells; [Hcy] 30 μM, [NAC] = 45 μM, [NACCbl] = 12.5 μM, [Folate] = 25 μM where named in the label, label Hcy/HCy = Hcy alone): 1.696
- Mean (FIG. 14a, protection of SK-HEP-1 cells from Hcy in the presence of folate) (SK-HEP-1 cells; [Hcy] 30 μM, folate 25 μM present, [GSCbl] = 15 μM, [NACCbl] = 12.5 μM, [CNCbl] = 15 μM, [MeCbl] = 12.5 μM, [HOCbl] = 17.5 μM, [NAC] = 45 μM, [GSH] = 100 μM): 2.661
- Absorbance at 490 nm, Mean (SK-HEP-1 cells; as E80, Hcy conc. 0.000): 2.761
- Absorbance at 490 nm, Mean (SK-HEP-1 cells; as E80, Hcy conc. 1.780): 2.673
- Absorbance at 490 nm, Mean (SK-HEP-1 cells; as E80, Hcy conc. 3.125): 2.404
- Absorbance at 490 nm, Mean (SK-HEP-1 cells; as E80, Hcy conc. 6.250): 2.273
- Absorbance at 490 nm, Mean (SK-HEP-1 cells; as E80, Hcy conc. 12.500): 2.142
- Absorbance at 490 nm, Mean (SK-HEP-1 cells; as E80, Hcy conc. 25.000): 1.954
- Absorbance at 490 nm, Mean (SK-HEP-1 cells; as E80, Hcy conc. 50.000): 1.786
- Absorbance at 490 nm, Mean (SK-HEP-1 cells; as E80, Hcy conc. 100.000): 1.685
- Survival (SK-HEP-1 cells; compound 30 μM, 50 μM homocysteine): ~60%
